“Also recorded” adds a separate entry of the source.
Legend:
[1] = system: patients with erythromelalgia (EM); test: Tolerability of oral magnesium products in patients (diarrhea, adverse effects, achievable dose)
Source text: (§1) Thirteen patients took nonprescription magnesium oxide ([…]) or magnesium-protein (Mg-protein) products in gradually escalating and divided doses totaling 0.6-5 grams/day elemental magnesium under their physicians' supervision.
(§2) Although magnesium's potential benefits for many disorders have been described, patients' lack of tolerance to traditional therapeutic doses has precluded widespread utilization. Indeed, some patients have difficulty tolerating the RDA of magnesium. […] All doses were divided and taken at 4-6 hour intervals with copious amounts of water. All patients had normal renal function, which is required for undertaking magnesium therapy.

[2] = system: patient with CRPS1 / erythromelalgia (EM); test: Case study patient #1 (CRPS1/EM): pain and symptom response; assay type: in vivo, human
Source text: A magnesium treatment regimen was then investigated.
When the infusions were postponed, small doses of the MgSO4 solution was mixed with water and ingested orally.

[3] = system: patients with erythromelalgia (EM); test: High-dose oral magnesium therapy in erythromelalgia patients: pain and symptom response; assay type: in vivo, human; conditions: for worsening of EM: one patient
Source text: as §1
Specifically, it is most important that the magnesium compound (sulfate, oxide, carbonate, etc.) be either very finely divided or dissolved. […] Ideally, dosing should begin at RDA levels and increased as tolerance increases, until pain and/or symptom reduction is achieved. This level can then be maintained longterm. This pain reduction and long term dosing can begin as low as 600 mg elemental Mg/day and may be increased until gastrointestinal distress resulting from administration is consistent. This may occur at a dosage as high as 5 g/day elemental magnesium or even higher. Preferably, at least 1 gm magnesium/day should be administered, more preferably 1.2 gm, more preferably 1.5 gm, still more preferably 2 gm Mg/day. Still more preferably 2.5 gm Mg/day, and most preferably at least 3 gm Mg/day should be administered. To reduce the likelihood of gastrointestinal distress, daily dosages should be divided into several smaller administrations of not more than 500 mg elemental magnesium, preferably not more than 250 mg, and more preferably not more than […] Magnesium per dose. These can be administered several times daily to achieve the correct total daily dose. Small doses taken every 1-2 hours can be used, as can slightly larger doses taken every 4-6 hours. The frequency and size of doses is not as important as the total daily dose, provided the patient can tolerate the regimen.
as §2

subjects = conditions: 250 mg two times daily, oral, one study; cited from earlier work

Structure (SMILES): O=S(=O)([O-])[O-].[Mg+2] [MgSO4, magnesium sulfate]
- serum magnesium measurements (patient #1, also two hours after ingesting two grams of MgSO4): normal
- repeated chemistries and urine studies (patient #1, up to 12 grams/day orally): normal
- adverse effects ([1]; patient #1): only occasional, mild adverse effects (loose stools, blurred vision)
- daily dose reached ([1]; patient #1, 50% MgSO4 solution mixed with water, oral, increased very gradually): 12 grams MgSO4/day
- pain and symptom response [2]: Pain was completely eliminated; also recorded: nearly total remission from EM

Structure (SMILES): COc1ccc([C@@H]2Sc3ccccc3N(CCN(C)C)C(=O)[C@@H]2OC(C)=O)cc1 [diltiazem]
- pain and symptom response [2]: greater, but still limited, benefit
- worsening of EM [3]: worsening

Structure (SMILES): [O]=[Mg] [magnesium oxide]
- dose reached ([1]; one patient unable to tolerate 2 grams of magnesium tablets, blended in water): 4.5 grams/day
- pain and function response ([3]; person with CIPD and severe EM, escalating doses to 4-5 grams/day): significantly less pain and improved function
- pain and flaring response ([3]; person with EM, escalating doses to 4-5 grams/day, within two weeks): marked reduction in pain and flaring

Structure (SMILES): [Mg+2] [magnesium]
- adverse effects in subjects (subjects): 45.7%
- patients who improved ([3]; 4 of the 6 patients who reached doses above 1 gram/day (1.2 to 7 grams/day)): 67%
- patients who obtained benefit ([3]; 6 of 8 who reached therapeutic levels, with the two already known cases): 75%
- patients who obtained substantial pain reduction and improvement in other symptoms ([3]; escalating divided doses totaling 0.6-5 grams/day elemental magnesium, 13 refractory patients): eight of these thirteen
- worsening of EM [3]: worsened
- effectiveness and tolerability compared with nifedipine and/or diltiazem ([3]; patients who had previously received nifedipine and/or diltiazem): more effective and better tolerated
- patients who reported improvement ([3]; six of 11 EM patients, after 2 months): 55%

From patent US6835398B2, “Method of administering high-dose, oral magnesium for treatment of chronic pain syndrome of erythromelalgia” (priority 2001, dated 2004)
